According to patent US20080268123A1, “Onion Flavoured Compounds and Use” (GIVAUDAN SA, priority 2005, published 2008):
Entries after “also recorded” stand apart in the source; their conditions may differ.

Experiments:
[1] = Onion flavour compounds in mushroom cream soup (sensory panel); conditions: mushroom cream soup pH 6.0, additive 1 mmol/L
Experimental: (§1) Unless otherwise indicated, all sensory tests are triangle tests and are performed according to the guidelines in “Amtliche Sammlung von Untersuchungsverfahren nach § 35 LMBG (Lebensmittel-und Bedarfsgegenständegesetz)”; L 00.90 7 , Untersuchung von Lebensmitteln , Sensorische Prüfverfahren, Dreiecksprüfung (Übernahme der gleichnahmigen Deutschen Norm DIN ISO 4120, Ausgabe Januar 1995), as follows:
(§2) For recording the taste profiles, samples are prepared as indicated in the examples below. Taste profiles of samples are determined in a triangle test in three different sessions. Panellists refrain from eating or drinking for at least 1 hour prior to the session. At the start of the session and before each trial, the subject rinsed with water and expectorated. The participants receive a set of two blanks and one taste sample. Liquid samples are swirled around in the mouth briefly and expectorated. Solid samples are chewed for 20 seconds and then expectorated. […] Each sample with additive is compared to two reference samples without additives.
Cys-O—C2H5and γ-Glu-Cys-O—C2H5are added to mushroom cream soup (Unox, Unilever Bestfoods, Germany), pH 6.0 in a concentration of 1 mmol/L samples are evaluated directly after homogenisation.

[2] = Onion flavour compounds in tomato soup (sensory panel)
Experimental: as §1, §2
Cys-O—C2H5 and γ-Glu-Cys-O—C2H5 are added to tomato soup (Unox, Unilever Bestfoods, Germany, pH 4,5), in the concentrations indicated below.

[3] = Onion flavour compounds in barbecue sauce (sensory panel); conditions: barbecue sauce pH 3.3, additive 5 mmol/L
Experimental: as §1, §2
Onion flavour compounds as indicated in the table below are added to barbecue sauce (Kraft Foods, Germany), pH 3.3.

[4] = Sensory effects of compounds of formula I in water (triangle test, trained panel); conditions: additive 5 mmol/L
Experimental: as §1
(§3) The sensory panel is trained to evaluate the taste of aqueous solutions (4 ml each) of the following standard taste compounds by using a triangle test as described in the literature (Wieser and Belitz, Z. Lebensm. Unters. Forsch., 1975, 159, 65-72): sucrose (40 mmol/L) for sweet taste; citric acid (5 mmol/L) for sour taste; NaCl (12 mmol/L) for salty taste; caffeine (2 mmol/L) for bitter taste; and monosodium glutamate (MSG; 6 mmol/L) for umami taste. For kokumi taste, a solution of glutathione (10 mmol/L) in diluted chicken broth concentrate (Gourmet Bouillon Huhn, Maggi, Singen, Germany; 3 g/100 g bottled water (Evian®)) is prepared and compared to the taste of chicken broth with no glutathione added. All sensory analyses are performed in a sensory panel room at 22-25° C. over three different sessions by a trained panel of 8 to 10 individuals.
as §2

[5] = Sensory effects of compounds of formula I in chicken broth (triangle test, trained panel); conditions: for kokumi intensity (0-5): broth without additives = 2
Experimental: as §1, §3, §2
Sensory tests (triangle test) are performed at least three times for each compound using sensory panels of different individuals to confirm results.
Chicken Broth is prepared by dilution of 3 g chicken broth concentrate (Gourmet Bouillon Huhn; Maggi, Singen, Germany) with 100 ml water (Evian). Additives are added as specified in table below.
The pH-value of all samples is adjusted to 6.5 using formic acid (0.1 mol/L) or sodium hydroxide (0.1 mol/L).
Flavour intensity (onion or kokumi) is rated from 0-5 according to a scale from 0 to 5 (with 5 most intensive). GSH (5 mmol/L) is determined to have an kokumi intensity of 3 in all tests.
The additive is added to a consumable and the sample is homogenised. The samples are presented to the sensory panel directly after homogenisation.
For each sample, flavour intensity is rated and panelists are asked to describe sensory characteristics.

[6] = tomato soup pH 4,5, additive 1 mmol/L
[7] = tomato soup pH 4,5, additive 5 mmol/L
[8] = chicken broth pH 6.5, additive 5 mmol/L
[9] = chicken broth pH 6.5, additive 5 mmol/L, scale 0 to 5 (5 most intensive)
[10] = chicken broth pH 6.5, additive 5 mmol/L, scale 0 to 5
[11] = chicken broth pH 6.5, additive 30 mmol/L (positive control)
[12] = chicken broth pH 6.5, additive 10 mmol/L (positive control)

Row | Compound | Onion flavour intensity [4] | Sensory description [4] | Sensory descriptors [5, 8] | onion flavour intensity (0-5) [5, 9] | kokumi intensity (0-5) [5, 10] | also measured
1 | CCOC(=O)[C@@H](N)CS [Cys-O—C2H5] | 3.5 | onion flavour | onion flavour | 3 | 2 | Test results (sensory description versus reference) [1]: Preferred, onion like flavour; panelists indicating an onion like flavour [1]: 7 out of 8; Test results (sensory description versus reference) [2, 6]: onion like and slightly meaty flavour; also recorded: Preferred, onion like flavour, slightly meaty; Test results (sensory description versus reference) [2, 7]: onion like and slightly meaty flavour; Test results (sensory description versus reference) [3]: Preferred, onion like flavour, meaty
2 | COC(=O)[C@@H](N)CS [Cys-O—CH3] | 2.5 | onion flavour | onion flavour | 2 | 2 | 
3 | N[C@@H](CCC(=O)N[C@@H](CS)C(=O)NCC(=O)O)C(=O)O [GSH, reduced form, glutathione, reference compound] |  |  | increased kokumi taste | 0 | 3 | 
4 | N[C@@H](CCC(=O)N[C@@H](CS)C(=O)O)C(=O)O [γ-Glu-Cys-OH, reference compound] | 0 | tasteless | increased kokumi taste | 0 | 4 | 
5 | CCOC(=O)[C@H](CS)NC(=O)CC[C@H](N)C(=O)O [γ-Glu-Cys-O—C2H5] | 4.5 | onion flavour | strong onion flavour, increased | 4 | 3.5 | Test results (sensory description versus reference) [1]: the observed effect is higher; also recorded: Preferred, strong onion like flavour, meaty,; Test results (sensory description versus reference) [2, 6]: more roasty; also recorded: Preferred, onion like flavour, meaty, roasty, slightly; Test results (sensory description versus reference) [2, 7]: Preferred, strong onion like flavour, meaty, roasty, more; Panel description in text (difference, preference, kokumi taste) ([2]; tomato soup pH 4,5, samples with 1 mmol/L and 5 mmol/L taken together): kokumi taste; Test results (sensory description versus reference) [3]: more roasty; also recorded: kokumi taste; also recorded: Preferred, strong onion like flavour, meaty,
6 | CSCC[C@H](N)C(=O)O [Met-OH] | 0 | sweet |  |  |  | 
7 | CCOC(=O)[C@@H](N)CO [Ser-O—C2H5] | 0 | slightly sweet |  |  |  | 
8 | CCOC(=O)CNC(=O)[C@H](CS)NC(=O)CC[C@H](N)C(=O)O [γ-Glu-Cys-Gly-O—C2H5] | 0 | intensely bitter |  |  |  | 
9 | COC(=O)[C@@H](N)CO [Ser-O—CH3] | 0 | slightly sweet |  |  |  | 
10 | N[C@@H](CS)C(=O)O [Cys-OH, reference compound] | 0 | sweet | increased sweetness | 0 | 2 | 
11 | [Cl-].[Na+] [NaCl, reference compound] |  |  |  |  |  | Sensory descriptors [5, 11]: increased salt taste; onion flavour intensity (0-5) [5, 11]: 0; kokumi intensity (0-5) [5, 11]: 2
12 | N[C@@H](CCC(=O)O)C(=O)[O-].[Na+] [MSG, mono sodium glutamate, reference compound] |  |  |  |  |  | Sensory descriptors [5, 12]: increased umami taste; onion flavour intensity (0-5) [5, 12]: 0; kokumi intensity (0-5) [5, 12]: 2
13 | COC(=O)[C@@H](N)CCSC [Met-O—CH3] | 1 | slight onion flavour | slight onion flavour | 0.5 | 2 | 
14 | CCOC(=O)[C@@H](N)CCSC [Met-O—C2H5] | 1.5 | slight onion flavour | slight onion flavour | 1.5 | 2 | 
15 | γ-Glu-Cys(S—C2H5)-Gly-O—C2H5 | 0 | intensely bitter |  |  |  | 
